Experimental data as given in patent US9695155B2, “Herbicidal substituted pyrimidinyloxy benzene compounds” (E. I. DU PONT DE NEMOURS AND COMPANY, priority 2013, dated 2017).

Columns and labels:
windgrass = experiment: Test D preemergence; assay type: in vivo, Apera spica-venti
Method in brief: (§1)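 Seeds sown in silt loam soil got preemergence sprays; plants in peat/vermiculite potting medium were sprayed postemergence at 2–18 cm (1- to 4-leaf stage). Chemicals were formulated in a non-phytotoxic solvent mixture with surfactant. After 7 to 21 days in a controlled environment, injury was rated visually versus controls, 0 (no effect) to 100 (complete control).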

wild mustard = experiment: Test D preemergence; assay type: in vivo, Sinapis arvensis
Method in brief: as §1

winter wheat = experiment: Test D postemergence; assay type: in vivo, Triticum aestivum
Method in brief: as §1

spring wheat = experiment: Test D postemergence; assay type: in vivo, Triticum aestivum
Method in brief: as §1

kochia = experiment: Test D postemergence; assay type: in vivo, Kochia scoparia
Method in brief: as §1

bromegrass, downy = experiment: Test D preemergence; assay type: in vivo, Bromus tectorum
Method in brief: as §1

galium = experiment: Test D preemergence; assay type: in vivo, Galium aparine
Method in brief: as §1

speedwell = experiment: Test D postemergence; assay type: in vivo, Veronica persica
Method in brief: as §1

lambsquarters = experiment: Test D preemergence; assay type: in vivo, Chenopodium album
Method in brief: as §1

canarygrass = experiment: Test D preemergence; assay type: in vivo, Phalaris minor
Method in brief: as §1

[1] = 16 g ai/ha, scale 0 (no effect) to 100 (complete control)
[2] = 31 g ai/ha, scale 0 to 100 (0 no effect, 100 complete control)
[3] = 62 g ai/ha, scale 0 to 100 (0 no effect, 100 complete control)
[4] = 125 g ai/ha, scale 0 to 100 (0 no effect, 100 complete control)
[5] = 250 g ai/ha, scale 0 to 100 (0 no effect, 100 complete control)

Clc1cnc(Oc2ccccc2-n2cc(Cl)cn2)nc1 [Compound 3]
20: Plant response rating, Windgrass (windgrass; 250 g ai/ha, scale 0-100) | Plant response rating, Kochia (kochia; 16 g ai/ha, scale 0-100)
65: Plant response rating, Wheat, Winter (winter wheat; 16 g ai/ha, scale 0-100)
50: Plant response rating, Lambsquarters (lambsquarters; 250 g ai/ha, scale 0-100)
90: Plant response rating, Mustard, Wild (wild mustard; 125 g ai/ha, scale 0-100)
100: Plant response rating, Mustard, Wild (wild mustard; 250 g ai/ha, scale 0-100) | Plant response rating, Galium (galium; 250 g ai/ha, scale 0-100)
0: Plant response rating, Windgrass (windgrass; [1]) | Plant response rating, Windgrass (windgrass; 31 g ai/ha, scale 0 (no effect) to 100 (complete control)) | Plant response rating, Windgrass (windgrass; 62 g ai/ha, scale 0-100) | Plant response rating, Wheat, Winter (winter wheat; [2]) | Plant response rating, Wheat, Winter (winter wheat; [3]) | Plant response rating, Wheat, Winter (winter wheat; [4]) | Plant response rating, Wheat, Winter (winter wheat; [5]) | Plant response rating, Wheat, Spring (spring wheat; [2]) | Plant response rating, Wheat, Spring (spring wheat; [3]) | Plant response rating, Wheat, Spring (spring wheat; [4]) | Plant response rating, Wheat, Spring (spring wheat; [5]) | Plant response rating, Bromegrass, Downy (bromegrass, downy; [1]) | Plant response rating, Bromegrass, Downy (bromegrass, downy; 31 g ai/ha, scale 0-100) | Plant response rating, Bromegrass, Downy (bromegrass, downy; 62 g ai/ha, scale 0-100) | Plant response rating, Bromegrass, Downy (bromegrass, downy; 125 g ai/ha, scale 0-100) | Plant response rating, Bromegrass, Downy (bromegrass, downy; 250 g ai/ha, scale 0-100) | Plant response rating, Galium (galium; [1]) | Plant response rating, Galium (galium; 31 g ai/ha, scale 0-100) | Plant response rating, Lambsquarters (lambsquarters; [1]) | Plant response rating, Lambsquarters (lambsquarters; 31 g ai/ha, scale 0-100) | Plant response rating, Lambsquarters (lambsquarters; 62 g ai/ha, scale 0-100) | Plant response rating, Canarygrass (canarygrass; [1]) | Plant response rating, Canarygrass (canarygrass; 31 g ai/ha, scale 0-100) | Plant response rating, Canarygrass (canarygrass; 62 g ai/ha, scale 0-100) | Plant response rating, Canarygrass (canarygrass; 125 g ai/ha, scale 0-100)
45: Plant response rating, Speedwell (speedwell; [3])
60: Plant response rating, Wheat, Spring (spring wheat; 16 g ai/ha, scale 0-100) | Plant response rating, Speedwell (speedwell; 16 g ai/ha, scale 0-100) | Plant response rating, Speedwell (speedwell; [4])
5: Plant response rating, Kochia (kochia; [2]) | Plant response rating, Kochia (kochia; [3])
70: Plant response rating, Galium (galium; 125 g ai/ha, scale 0-100)
30: Plant response rating, Mustard, Wild (wild mustard; [1]) | Plant response rating, Speedwell (speedwell; [2])
80: Plant response rating, Mustard, Wild (wild mustard; 31 g ai/ha, scale 0-100) | Plant response rating, Mustard, Wild (wild mustard; 62 g ai/ha, scale 0-100)
25: Plant response rating, Kochia (kochia; [4]) | Plant response rating, Lambsquarters (lambsquarters; 125 g ai/ha, scale 0-100) | Plant response rating, Canarygrass (canarygrass; 250 g ai/ha, scale 0-100)
10: Plant response rating, Windgrass (windgrass; 125 g ai/ha, scale 0-100) | Plant response rating, Galium (galium; 62 g ai/ha, scale 0-100)
75: Plant response rating, Speedwell (speedwell; [5])
55: Plant response rating, Kochia (kochia; [5])
